In patent publication US20250064875A1, “PHARMACEUTICAL COMPOSITION FOR PREVENTING OR TREATING MUSCLE DISEASES” (KOSA BIO INC., priority 2021, published 2025):

Tests used:
sarcopenia animal model [1] = assay: Sarcopenia animal model, body composition by DXA; format: in vivo, mice; details: for lean body weight / BMC / BMD(g/cm^2) / fat / fat(%) / tissue area(cm^2): DXA; for lean body weight: C57BL/6 mice, dexamethasone 20 mg/kg i.p. daily, extract 300 mg/kg or FL 0.5 mg/kg oral daily; for BMC / BMD(g/cm^2) / fat / fat(%) / tissue area(cm^2): same model and doses
Procedure: Specifically, male C57BL/6 mice (7 weeks old, Samtako Bio Korea, Korea) were acclimatized, and their body weight (g), lean body weight (g), fat mass (g), and body fat percentage (%) were measured using dual-energy X-ray absorptiometry (DXA). […] A control group consisted of untreated 5 mice (normal mice) at day 0 of treatment. On days 7 and 14 of treatment, the mice were scanned using DXA to measure body weight, lean body weight, fat mass, and body fat percentage; the results are presented in FIG. 14 and Tables 2 and 3.

sarcopenia animal model [2] = assay: Sarcopenia animal model, excised tissue weights; format: in vivo, mice; details: day 14; for Thymus: dexamethasone 20 mg/kg i.p., extract 300 mg/kg or FL 0.5 mg/kg oral daily
Procedure: Specifically, male C57BL/6 mice (7 weeks old, Samtako Bio Korea, Korea) were acclimatized, and their body weight (g), lean body weight (g), fat mass (g), and body fat percentage (%) were measured using dual-energy X-ray absorptiometry (DXA). […] A control group consisted of untreated 5 mice (normal mice) at day 0 of treatment.

atrogin-1 = assay: Inhibition of muscle protein expression (qPCR): atrogin-1; format: cell-based; details: cells treated with FL, FV or FI 2.5-20 μg/mL
Source text: (§1) The ability of the elderberry extracts and monosaccharide-BCAA conjugate compounds prepared above to inhibit the expression of muscle proteins was confirmed using the qPCR method. Specifically, muscle RING-finger protein-1 (MuRF-1) and atrogin-1, which are both markers of muscle atrophy, and myostatin, which a negative regulator of skeletal muscle mass, were used as target muscle proteins.
(§2) Using the cells treated with the hot water extract, 50% ethanol extract, or 100% ethanol extract of elderberry described in Experimental Example 1-2, qPCR was performed as described above.
(§3) Using the cells treated with FL, FV, or FI as described in Experimental Example 1-3, qPCR was performed as previously outlined.

[3] = tested on: C2C12 myoblast cells differentiated to myotubes; assay: Inhibition of myocyte apoptosis: MTT cell viability in dexamethasone-treated myotubes; format: cell-based; details: 10 μM dexamethasone, FL, FV, FI 2.5-20 μg/mL or amino acid controls, 24 hours, FIGS. 4-6
Procedure: Firstly, C2C12 myoblast cells (from ATCC, USA) were cultured in DMEM supplemented with 10% fetal bovine serum (FBS) and 1% antibiotic-antimycotic at 37° C. under a 5% CO2 atmosphere. Thereafter, the medium was replaced with one containing 2% horse serum (HS) for incubation of additional 72 hours. […] Post-treatment, the cells were observed again under a microscope. The results of the differentiation to myotubes are presented in FIG. 1, and the observations post-dexamethasone treatment in FIG. 2.
After 24 hours, the culture medium was removed, and MTT reagent (5 mg/mL) was added to each well and incubated for 4 hours. Subsequently, DMSO was added to dissolve any precipitates, and the absorbance was read at 570 nm.
Apart from FL, which was found in elderberry extracts, fructose-valine (FV) and fructose-isoleucine (FI) conjugates in which the branched-chain amino acid valine or isoleucine is conjugated to the monosaccharide fructose were also tested for inhibition against myocyte apoptosis. Experiments were conducted in the same manner and conditions as in Experiment Example 1-2, except that FL, FV, or FI was used at concentrations of 2.5, 5, 10, or 20 μg/mL instead of elderberry extracts. As controls, amino acids such as leucine, valine, isoleucine, tryptophan, arginine, tyrosine, glycine, lysine, methionine, phenylalanine, or threonine were used. The cell viability calculated from the treatments with FL, FV, or FI are presented in FIG. 4, and results from amino acid treatments in FIGS. 5 and 6.

MuRF-1 = assay: Inhibition of muscle protein expression (qPCR): MuRF-1; format: cell-based; details: cells treated with FL, FV or FI 2.5-20 μg/mL
Source text: as §1, §2, §3

TNFα = assay: Inhibition of TNFα expression (qPCR) in dexamethasone-treated myotubes; format: cell-based; details: cells treated with FL, FV or FI 2.5-20 μg/mL, FIG. 8
Procedure: The cells treated with elderberry extracts as in Experimental Example 1-2 were further treated with trypsin to collect only the cells. After centrifugation of the collected cells at 3,000 rpm for 5 minutes, the supernatant was removed and total RNA was extracted by sequentially treating with RiboEx™ and Hybrid-R™ (GeneAll, Korea). The concentration of the extracted RNA was measured using a Nanodrop, and this RNA was used as a template to synthesize cDNA. The cDNA was synthesized using a mixture of RNA, oligo-(dT) primers, and 2×HyperScript™ RT Master Mix (GeneAll, Korea). Subsequently, real-time PCR (qPCR) was performed using the synthesized cDNA as a template and Power SYBR™ Green PCR Master Mix under standard conditions to confirm the expression of TNFα.
Cells treated with FL, FV, or FI as in Experimental Example 1-3 were trypsinized to collect only the cells, and the level of TNFα expression was examined using the same conditions and methods as described in Experimental Example 2-1.

myostatin = assay: Inhibition of muscle protein expression (qPCR): myostatin; format: cell-based; details: cells treated with FL, FV or FI 2.5-20 μg/mL
Source text: as §1, §2, §3

TM3 cell line = assay: Promotion of testosterone secretion (ELISA) in H2O2-treated Leydig cells; format: cell-based; details: 500 μM H2O2 6 hours; extract 12.5-100 μg/mL or FL 1.25-10 μg/mL; ELISA of medium; FIG. 9
Procedure: First, the TM3 cell line (from ATCC, USA), which is Leydig cells, were cultured using a standard method. The cultured cells were treated with 500 μM of hydrogen peroxide (H2O2) for 6 hours, followed by the addition of either 12.5, 25, 50, or 100 μg/mL of the hot water extract of elderberry or 1.25, 2.5, 5, or 10 μg/mL of FL (fructose-leucine). Subsequently, ELISA was performed using the cultured cell medium to determine the levels of testosterone, and the results are presented in FIG. 9.

[4] = excised tissue weight, same model and doses
[5] = result in words, sarcopenia mice, 14 days

| SMILES | lean body weight (sarcopenia animal model [1]; Day 0) | BMC (sarcopenia animal model [1]; Day 0) | BMD(g/cm^2) (sarcopenia animal model [1]; Day 0) | fat (sarcopenia animal model [1]; Day 0) | fat(%) (sarcopenia animal model [1]; Day 0) | tissue area(cm^2) (sarcopenia animal model [1]; Day 0) | lean body weight (sarcopenia animal model [1]; Day 7) | BMC (sarcopenia animal model [1]; Day 7) | BMD(g/cm^2) (sarcopenia animal model [1]; Day 7) | fat (sarcopenia animal model [1]; Day 7) | fat(%) (sarcopenia animal model [1]; Day 7) | tissue area(cm^2) (sarcopenia animal model [1]; Day 7) | lean body weight (sarcopenia animal model [1]; Day 14) | BMC (sarcopenia animal model [1]; Day 14) | BMD(g/cm^2) (sarcopenia animal model [1]; Day 14) | mRNA expression level of atrogin-1 increased by dexamethasone (atrogin-1) | cell viability reduced by dexamethasone [3] | mRNA expression level of MuRF-1 increased by dexamethasone (MuRF-1) | level of TNFα expression increased by dexamethasone (TNFα) | mRNA expression level of myostatin increased by dexamethasone (myostatin) | other results |
| --- | --- | --- | --- | --- | --- | --- | --- | --- | --- | --- | --- | --- | --- | --- | --- | --- | --- | --- | --- | --- | --- |
| C[C@@H]1C[C@H]2[C@@H]3CCC4=CC(=O)C=C[C@]4(C)[C@@]3(F)[C@@H](O)C[C@]2(C)[C@@]1(O)C(=O)CO [Dexamethasone, dexamethasone, reference compound] | 18.93 ± 1.42 g | 0.23 ± 0.13 g | 0.057 ± 0.012 g/cm^2 | 1.44 ± 0.16 g | 7.1 ± 1.07% | 13.32 ± 2.03 cm^2 | 17.53 ± 1.36 g | 0.16 ± 0.02 g | 0.052 ± 0.004 g/cm^2 | 1.13 ± 0.34 g | 5.99 ± 1.53% | 12.41 ± 1.31 cm^2 | 17.47 ± 0.29 g | 0.16 ± 0.01 g | 0.057 ± 0.004 g/cm^2 | – | – | – | – | – | fat (sarcopenia animal model [1]; Day 14): 1.56 ± 0.34 g; fat(%) (sarcopenia animal model [1]; Day 14): 8.17 ± 1.58%; tissue area(cm^2) (sarcopenia animal model [1]; Day 14): 13.97 ± 0.51 cm^2; Thymus (sarcopenia animal model [2]; excised tissue weight): 0.009 ± 0.004 g; Muscle (sarcopenia animal model [2]; [4]): 0.501 ± 0.064 g; Spleen (sarcopenia animal model [2]; [4]): 0.026 ± 0.01 g |
| CC[C@H](C)[C@H](NCC1(O)OC[C@@H](O)[C@@H](O)[C@@H]1O)C(=O)O (stereo partly drawn) [FI, fructose-isoleucine] | – | – | – | – | – | – | – | – | – | – | – | – | – | – | – | significantly decreased | significantly restored | significantly decreased | significantly suppressed | significantly decreased | – |
| CC(C)CC(NCC1(O)OCC(O)C(O)C1O)C(=O)O (stereo not drawn) [FL, fructose-leucine] | 18.31 ± 1.43 g | 0.19 ± 0.04 g | 0.053 ± 0.004 g/cm^2 | 1.27 ± 0.25 g | 6.49 ± 1.03% | 13.13 ± 1.08 cm^2 | 18.05 ± 0.44 g | 0.20 ± 0.03 g | 0.059 ± 0.009 g/cm^2 | 1.43 ± 0.53 g | 7.31 ± 2.47% | 13.83 ± 0.53 cm^2 | 18.34 ± 0.56 g | 0.19 ± 0.04 g | 0.056 ± 0.006 g/cm^2 | significantly decreased | significantly restored | significantly decreased | significantly suppressed | significantly decreased | concentration of testosterone suppressed by hydrogen peroxide (TM3 cell line): significantly restored; fat (sarcopenia animal model [1]; Day 14): 1.29 ± 0.19 g; fat(%) (sarcopenia animal model [1]; Day 14): 6.57 ± 0.76%; tissue area(cm^2) (sarcopenia animal model [1]; Day 14): 13.66 ± 0.92 cm^2; body weight of the mice (sarcopenia animal model [1]; [5]): restored; lean body weight of the mice (sarcopenia animal model [1]; [5]): restored; tissue areas of the mice (sarcopenia animal model [1]; [5]): restored; Thymus (sarcopenia animal model [2]; excised tissue weight): 0.009 ± 0.002 g; Liver (sarcopenia animal model [2]; [4]): 1.375 ± 0.117 g; Muscle (sarcopenia animal model [2]; [4]): 0.683 ± 0.18 g; Spleen (sarcopenia animal model [2]; [4]): 0.028 ± 0.009 g; weights of the various tissues (sarcopenia animal model [2]; result in words): restored to levels similar to those of the normal control group |
| CC(C)[C@H](NCC1(O)OC[C@@H](O)[C@H](O)C1O)C(=O)O (stereo partly drawn) [FV, fructose-valine] | – | – | – | – | – | – | – | – | – | – | – | – | – | – | – | significantly decreased | significantly restored | significantly decreased | significantly suppressed | significantly decreased | – |
